Data on 3 molecules can be found in article PMC3519854, “High Yield Production and Refolding of the Double-Knot Toxin, an Activator of TRPV1 Channels” (PLoS ONE, 2012).

Positions of bridges follow the written chain, without caps; N, C: chain ends. Residues, ends and D or L forms follow the SMILES beside them.

Series [1] has as its target T1, rat TRPV1 (Rattus norvegicus, UniProt O35433).
T1 construct: expressed in transfected cells; host or cells: Xenopus laevis oocytes injected with cRNA (pGEM-HE vector)
Kind of series: Two-electrode voltage clamp recording of TRPV1 activation in oocytes. In kind it is cell-based. Particulars: for Relative potency as TRPV1 agonist: comparison of DkTx, K1 and K2, concentration-dependence in oocytes; for Hill coefficient for activation of TRPV1 / Activation of TRPV1 channels (evoked currents) / Reversibility of TRPV1 activation after removal of the toxin: rat TRPV1 in Xenopus oocytes; for Hill coefficient for activation of TRPV1: concentration-dependence; for Activation of TRPV1 channels (evoked currents): holding voltage −60 mV, DkTx applied at 1 µM. Here is the method: (§1) Oocytes were surgically removed from anesthetized Xenopus laevis frogs in accordance with protocol 1253-12 approved by the National Institute of Neurological Disorders and Stroke Animal Care and Use Committee. Oocytes were gently shaken for 60 min in a solution of 82.5 mM NaCl, 2.5 mM KCl, 1 mM MgCl2, 5 mM HEPES and 2 mg/mL collagenase. A rat TRPV1 construct (generously provided by D. Julius, UCSF) was cloned into the pGEM-HE vector, and used to generate cRNA. The cRNA was then injected into oocytes, which were then incubated for 1–3 days at 17°C in ND-96 solution (96 mM NaCl, 2 mM KCl, 5 mM HEPES, 1 mM MgCl2 and 50 µg/mL gentamycin, titrated to pH 7.6 with NaOH). TRPV1 activity was recorded under voltage clamp using a two-electrode voltage clamp (OC-725C; Warner Instruments) in a 150-µL recording chamber. The recorded data were filtered at 1 kHz and digitized at 5 kHz using a digidata analog/digital converter and pClamp software (Molecular Devices). Microelectrode resistances were 0.1–1 MΩ when filled with 3 M KCl. The external recording solution contained 115 mM NaCl, 2.5 mM KCl, 1.5 mM MgCl2 and 10 mM HEPES, titrated to pH 7.4 with NaOH. All experiments were performed at room temperature (∼22°C).
Figure 6 Activity of K1, K2 and DkTx on TRPV1 channels. (A) Synthetic K1, K2 and DkTx activate TRPV1 channels. Oocytes were held at −60 mV and toxins were added to the recording chamber. (B) Concentration-dependence for activation of TRPV1 by the toxins.
(§2) The functional activities of DkTx, K1 and K2 were also compared by recording their electrophysiological effects on TRPV1-expressing cells.

Series [2] is described as follows: Relative hydrophobicity by RP-HPLC elution of folded versus linear toxin. Particulars: RP-HPLC C18, acetonitrile/water gradient with 0.1% TFA, qualitative. In kind it is physicochemical. Here is the method:
Figure 3 Purification and activity of the DkTx folding product. (A) Purification of linear DkTx. Cleavage of the fusion protein and reduction of the disulfide bond were accomplished using hydroxylamine and DTT, respectively, as described in methods. (B) Linear DkTx was folded in 1 M NH4OAc (pH 8.0) buffer containing 1 M GdnHCl, 1 mM EDTA, 2.5 mM GSH and 0.25 mM GSSG for 5 days at 4°C. The toxins were purified using a linear gradient of 29–44% solvent B for 15 min at a flow rate of 14 ml/min, where solvent A was water containing 0.1% TFA and solvent B was acetonitrile containing 0.1% TFA. (C) Fraction 5 activated TRPV1 expressed in oocytes. Holding voltage was −60 mV.
Figure 4 HPLC profiles of DkTx during the folding reaction. The peptides were separated using a linear gradient of 5–65% solvent B for 30 min at a flow rate of 1 ml/min, where solvent A was water containing 0.1% TFA and solvent B was acetonitrile containing 0.1% TFA. (A) Oxidative folding of DkTx in redox buffer was monitored by HPLC. Asterisks indicate correctly folded DkTx. (B) HPLC chromatogram of purified DkTx. Dashed and solid arrows indicate the minor and major forms of DkTx, respectively. […]
Figure 5 Folding kinetics of K1, K2 and DkTx. […] Quantification of the folding specifies was accomplished using HPLC. The correctly folded form (%) was determined based on the areas of the HPLC peaks. […]

Series [3] deals with A657P mutant of TRPV1. To be noted: cited from earlier work.
Text: as §2

Series [4] has as its system A657P mutant of TRPV1. Kind of series: Two-electrode voltage clamp recording on the A657P mutant of TRPV1. Particulars: data not shown. The series is classed as cell-based. Here is the method: as §1, §2

T1 sequence (O35433 whole entry): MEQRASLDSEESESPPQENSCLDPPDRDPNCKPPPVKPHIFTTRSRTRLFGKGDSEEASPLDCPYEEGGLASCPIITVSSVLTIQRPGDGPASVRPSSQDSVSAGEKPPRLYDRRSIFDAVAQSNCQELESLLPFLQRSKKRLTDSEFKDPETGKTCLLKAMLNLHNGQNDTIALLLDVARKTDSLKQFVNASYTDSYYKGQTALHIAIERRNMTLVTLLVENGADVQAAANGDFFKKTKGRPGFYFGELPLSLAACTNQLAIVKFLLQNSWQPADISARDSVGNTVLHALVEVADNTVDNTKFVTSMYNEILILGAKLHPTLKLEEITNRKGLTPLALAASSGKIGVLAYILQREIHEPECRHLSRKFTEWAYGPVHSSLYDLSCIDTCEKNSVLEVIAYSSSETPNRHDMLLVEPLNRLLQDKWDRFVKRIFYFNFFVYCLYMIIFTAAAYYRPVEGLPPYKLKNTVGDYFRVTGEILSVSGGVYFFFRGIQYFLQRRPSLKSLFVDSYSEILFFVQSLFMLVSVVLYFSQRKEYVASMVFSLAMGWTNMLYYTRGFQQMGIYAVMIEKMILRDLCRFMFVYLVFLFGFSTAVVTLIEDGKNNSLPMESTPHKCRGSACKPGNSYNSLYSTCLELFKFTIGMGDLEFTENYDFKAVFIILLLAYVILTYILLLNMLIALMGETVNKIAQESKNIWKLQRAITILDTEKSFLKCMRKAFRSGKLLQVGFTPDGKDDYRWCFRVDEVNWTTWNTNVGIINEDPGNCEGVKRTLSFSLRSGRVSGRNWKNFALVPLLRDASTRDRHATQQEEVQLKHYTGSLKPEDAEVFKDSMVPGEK

For “GDCAKEGEVCSWGKKCCDLDNFYCPMEFIPHCKKYKPYVPVTTNCAKEGEVCGWGSKCCHGLDCPLAFIPYCEKYR (disulfide 3-17, 10-24, 16-32, 45-59, 52-64, 58-72 (inferred)) [DkTx, double-knot toxin]”, in series [1], the “Relative potency as TRPV1 agonist” value was “most potent TRPV1 agonist among the three toxins”, the “Hill coefficient for activation of TRPV1” value is given as ~1 and the “Activation of TRPV1 channels (evoked currents)” value is “evoked large currents”. Also, the “Activation of TRPV1 channels (evoked currents)” value in series [1] (listed as fraction 5) is given as “robustly activated TRPV1 channels”. Besides, in series [1] (−60 mV), the “Reversibility of TRPV1 activation after removal of the toxin” value is on record as “decayed slowly”. The “Hydrophobicity of the correctly folded form relative to the linear form” value in series [2] is “more hydrophobic than the linear form”. In series [3], the “Sensitivity of the A657P mutant of TRPV1 to toxin” value is reported as “insensitive”.
For the molecule `CC[C@H](C)[C@@H]1NC(=O)[C@H](Cc2ccccc2)NC(=O)[C@H](C)NC(=O)[C@H](CC(C)C)NC(=O)[C@@H]2CCCN2C(=O)[C@@H]2CSSC[C@@H]3NC(=O)[C@H](C(C)C)NC(=O)[C@H](CCC(=O)O)NC(=O)CNC(=O)[C@H](CCC(=O)O)NC(=O)[C@H](CCCCN)NC(=O)[C@H](C)NC(=O)[C@@H](NC(=O)[C@@H](N)CC(N)=O)CSSC[C@H](NC(=O)[C@H](CSSC[C@@H](C(=O)N[C@@H](CCC(=O)O)C(=O)N[C@@H](CCCCN)C(=O)N[C@@H](Cc4ccc(O)cc4)C(=O)N[C@@H](CCCNC(=N)N)C(=O)O)NC(=O)[C@H](Cc4ccc(O)cc4)NC(=O)[C@@H]4CCCN4C1=O)NC(=O)[C@H](CCCCN)NC(=O)[C@H](CO)NC(=O)CNC(=O)[C@H](Cc1c[nH]c4ccccc14)NC(=O)CNC3=O)C(=O)N[C@@H](Cc1c[nH]cn1)C(=O)NCC(=O)N[C@@H](CC(C)C)C(=O)N[C@@H](CC(=O)O)C(=O)N2` [K2] (H-NCAKEGEVCGWGSKCCHGLDCPLAFIPYCEKYR-OH; disulfide 2-16, 9-21, 15-29 (inferred); N-terminus and C-terminus assumed), in series [1], the “Relative potency as TRPV1 agonist” value was “more active than K1” and the “Hill coefficient for activation of TRPV1” value is given as “about 4”. Moreover, the “Reversibility of TRPV1 activation after removal of the toxin” value in series [1] (−60 mV) is “readily reversible”. Moreover, in series [2], the “Hydrophobicity of the correctly folded form relative to the linear form” value is on record as “more hydrophobic than the linear or misfolded forms”. Moreover, the “Activation of the A657P mutant of TRPV1” value in series [4] is listed as “neither toxin activated the channel”.
With `N.N.N.N.N.N.N.N.N.N.N.N.N.N.[Cl-].[Cl-].[Cl-].[Cl-].[Cl-].[Cl-].[O-2].[O-2].[Ru+3].[Ru+3].[Ru+4]` [ruthenium red, reference compound], in series [1] (currents evoked by 1 µM DkTx in oocytes, −60 mV), the “Block of DkTx-evoked TRPV1 currents” value was “blocked”.
